“And” between values parts separate entries of the source, which are not always exact repeats. Equal values may be shown once.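 48-hour exposure; five concentrations; linearly interpolated endpoints. Here, GI50 denotes the concentration required for 50% inhibition of growth. TGI: concentration producing complete growth inhibition.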

What all share (experiment): inhibition of tumour cell growth, NCI panel, 48 h
Assay [1] concerns ACHN renal.
The subject of assay [2] is SK-MEL-2 melanoma.
Assay [3] has as its system RXF 393 renal.
Assay [4] has as its system NCI/ADR-RES ovarian.
For assay [5], the system named is DU-145 prostate.
Assay [6] deals with SF-295 CNS.
For assay [7], the system named is OVCAR-5 ovarian.
For assay [8], the system named is PC-3 prostate.
The test system of assay [9] is HT29 colon.
Assay [10] has as its system UACC-62 melanoma.

Consider `O=C1/C(=C/c2ccccc2)CCC/C1=C\c1ccccc1`, for which the GI50 is 6.72 µM and 9.22 µM in assay [1]; 6.19 µM and 22.7 µM in [2]; 7.73 µM and 4.27 µM in assay [3]; 17.5 µM in assay [4]; 16.9 µM in [5]; 7.49 µM in assay [6]. For the same compound, the GI50 is 6.75 µM and 22 µM in [7]; 14.3 µM in assay [8]; 2540 nM in [9]; 6.34 µM in [10]. Moreover, the TGI in assay [1] is 12.1 µM and 29.2 µM and 26.2 µM; in assay [2], 13.9 µM and 35.5 µM and 49.9 µM; in [3], 13.4 µM and 32.3 µM and 17.8 µM; in [4] it was 17.1 µM and 95.5 µM; in [5] it was 13.5 µM and 34 µM; in assay [6], 13.6 µM and 26.5 µM. Further, the TGI was 12 µM and 31.7 µM and 43.3 µM in assay [7]; 11 µM and 42.5 µM in assay [8]; 11.5 µM and 18.7 µM and 5.96 µM in assay [9]; 11.5 µM and 28.4 µM and 29.9 µM in assay [10].
On to `C=C1CCC2C3(C)COC(c4ccc(SC)cc4)OC3CCC2(C)C1C/C=C1/C(=O)OCC1O` (stereo unspecified), for which the GI50 in assay [1] was 6.25 µM; in assay [2], 3.73 µM; in assay [3], 4.51 µM; in [4], 2.78 µM; in assay [5], 11.5 µM; in assay [6] it was 8.14 µM. For the same compound, the GI50 in [7] was 10.3 µM; in [8], 5.67 µM; in assay [9] it was 2420 nM; in assay [10] it was 5.45 µM. The TGI in assay [1] turned out to be 17.2 µM; in [2], 15.5 µM; in assay [3] it was 15.6 µM; in [4] it was 8.18 µM; in assay [5], 23.7 µM; in assay [6], 23.7 µM. Also, the TGI in assay [7] is 25.2 µM; in assay [8] it was 20.2 µM; in [9], 7.02 µM; in [10], 20.4 µM.
Take `CC(=O)OC1CCC2(C)C(=CCC3C2CCC2(C)C(C(C)C(=O)O)CCC32)C1` (stereo unspecified): the TGI in assay [1], in [2], in assay [3], in [4], in assay [5] and in [6] was over 100 µM in each case. In addition, the TGI in assay [7], in [8], in [9] and in [10] was over 100 µM each time.
As to `CCC1CC(=O)N(SCC(N)C(=O)O)C1=O` (stereo unspecified), the TGI in assay [1], in assay [2], in assay [3], in [4], in assay [5] and in assay [6] was over 100 µM each time. In addition, the TGI in assay [7], in [8], in assay [9] and in assay [10] was over 100 µM in each case.
Turning to `CC[CH2][Sn]([Cl])([Cl])[CH2]CC`, the GI50 is 6.88 µM in assay [1]; 10.8 µM in assay [2]; 6.96 µM in assay [3]; 15.8 µM in [4]; 14.5 µM in assay [5]; 17.2 µM in assay [6]. The GI50 was 16.6 µM in assay [7], 16.2 µM in [8], 14400 nM in assay [9] and 4.19 µM in assay [10]. Moreover, the TGI was 20 µM in assay [1]; 25.6 µM in assay [2]; 20.6 µM in assay [3]; 30.7 µM in [4]; 28.6 µM in assay [5]; 33.4 µM in assay [6]. Also, the TGI stood at 31 µM in assay [7], 35.9 µM in assay [8], 30.9 µM in assay [9] and 17.5 µM in assay [10].
As to `CNC(C)C(=O)N[C@H](C(=O)N1CCC[C@@H]1CN(CCc1ccccc1)C(=O)C(F)(F)F)[C@H](C)OCC#CC#CCO[C@H](C)[C@H](NC(=O)[C@H](C)NC)C(=O)N1CCC[C@H]1CN(CCc1ccccc1)C(=O)C(F)(F)F` (stereo partly specified), the GI50 was 1.85 µM in assay [1]; under 0.01 µM in assay [2]; 0.0771 µM in assay [3]; 8.19 µM in [4]; 1.56 µM in assay [5]; 1.31 µM in assay [6]. The GI50 was 1.88 µM in [7], 1.72 µM in assay [8], 465 nM in assay [9] and 1.77 µM in assay [10]. Moreover, the TGI in assay [1] is 3.44 µM; in assay [2] it was 1.41 µM; in [3] it was 0.486 µM; in assay [4] it was 27.3 µM; in [5] it was 3.05 µM; in [6] it was 2.84 µM. For the same compound, the TGI is 3.68 µM in assay [7], 3.23 µM in [8], 1.53 µM in assay [9] and 3.24 µM in assay [10].
In the case of `O=C(NNC(=O)c1ccncc1)c1ccncc1`, the TGI in assay [1], in assay [2], in assay [3], in assay [4], in [5] and in assay [6] was over 100 µM throughout. The TGI in assay [7], in assay [8], in [9] and in assay [10] was over 100 µM each time.
`COc1ccc(/C=C\c2cc(OC)c(OC)c(OC)c2)cc1OC(=O)c1cccc(Cn2cc(CCOC(=O)c3cccc(Cn4nnc5c4C(=O)c4ccccc4C5=O)c3)nn2)c1`: the GI50 was 0.0153 µM in assay [1]; under 0.01 µM in assay [3]; under 0.01 µM in assay [4]; under 0.01 µM in assay [5]; 0.0316 µM in assay [6]; 0.0542 µM in [7]. For the same compound, the results for the GI50 in [8] and in [9] were under 0.01 µM and 321 nM, respectively. Further, the TGI is over 84.5 µM in assay [1]; 33.1 µM in assay [2]; 13.6 µM in [3]; 0.421 µM in assay [4]; 4.36 µM in assay [6]; over 100 µM in assay [7]. Besides, the TGI is over 100 µM in [8] and 24.8 µM in [10].

(Values after PubChem BioAssay (NCI).)
